Results as given in ChEMBL document CHEMBL5360558, “Molecular design, synthesis and anticancer activity of new thiopyrano[2,3-d]thiazoles based on 5-hydroxy-1,4-naphthoquinone (juglone)” (Eur J Med Chem, 2023).
Blank lines part the entries; values can stand above or below the molecule they belong to.

What was measured:
Salmon testes DNA = test: Displacement of methyl green from salmon sperm DNA assessed as DNA intercalation at 10 uM incubated for 24 hrs by fluorescence plate reader method relative to control; type: nucleic-acid assay; details: Salmo salar
SR = test: Anticancer activity against human SR cells assessed as cell growth at 10 uM incubated for 48 hrs by sulforhodamine B assay; type: functional; details: read-out: Activity
[1] = Cytotoxicity against mouse NIH3T3 cells assessed as cell growth inhibition incubated for 72 hrs by MTT assay; type: toxicity, cell-based
K562 = test: Cytotoxicity against human K562 cells assessed as cell growth inhibition incubated for 72 hrs by MTT assay; type: functional, cell-based; details: K562, 72 h
KB 3-1 = test: Cytotoxicity against human KB 3-1 cells assessed as cell growth inhibition incubated for 72 hrs by MTT assay; type: functional, cell-based; details: KB 3-1, 72 h
[2] = Cytotoxicity against human HaCaT cells assessed as cell growth inhibition incubated for 72 hrs by MTT assay; type: toxicity, cell-based; details: HaCaT cells
MCF7 = test: Cytotoxicity against human MCF7 cells assessed as cell growth inhibition incubated for 72 hrs by MTT assay; type: functional, cell-based; details: MCF7, 72 h
UO-31 = test: Anticancer activity against human UO-31 cells assessed as cell growth at 10 uM incubated for 48 hrs by sulforhodamine B assay; type: functional; details: read-out: Activity
BT-549 = test: Anticancer activity against human BT-549 cells assessed as cell growth at 10 uM incubated for 48 hrs by sulforhodamine B assay; type: functional; details: read-out: Activity
[3] = Cytotoxicity against human HCT116-p53-null cells assessed as cell growth inhibition incubated for 72 hrs by MTT assay; type: functional, cell-based
HCT-116 = test: Cytotoxicity against human HCT-116 cells assessed as cell growth inhibition incubated for 72 hrs by MTT assay; type: functional, cell-based; details: HCT-116, 72 h
SF-539 = test: Anticancer activity against human SF-539 cells assessed as cell growth at 10 uM incubated for 48 hrs by sulforhodamine B assay; type: functional; details: read-out: Activity
CAKI-1 = test: Anticancer activity against human CAKI-1 cells assessed as cell growth at 10 uM incubated for 48 hrs by sulforhodamine B assay; type: functional; details: read-out: Activity
[4] = Cytotoxicity against mouse J774.2 cells assessed as cell growth inhibition incubated for 72 hrs by MTT assay; type: toxicity, cell-based
RXF 393 = test: Anticancer activity against human RXF 393 cells assessed as cell growth at 10 uM incubated for 48 hrs by sulforhodamine B assay; type: functional; details: read-out: Activity
SF-295 = test: Anticancer activity against human SF-295 cells assessed as cell growth at 10 uM incubated for 48 hrs by sulforhodamine B assay; type: functional; details: read-out: Activity
HOP-62 = test: Anticancer activity against human HOP-62 cells assessed as cell growth at 10 uM incubated for 48 hrs by sulforhodamine B assay; type: functional; details: read-out: Activity
UACC-257 = test: Anticancer activity against human UACC-257 cells assessed as cell growth at 10 uM incubated for 48 hrs by sulforhodamine B assay; type: functional; details: read-out: Activity
HCT-15 = test: Anticancer activity against human HCT-15 cells assessed as cell growth at 10 uM incubated for 48 hrs by sulforhodamine B assay; type: functional; details: read-out: Activity
NCI-H322M = test: Anticancer activity against human NCI-H322M cells assessed as cell growth at 10 uM incubated for 48 hrs by sulforhodamine B assay; type: functional; details: read-out: Activity
OVCAR-5 = test: Anticancer activity against human OVCAR-5 cells assessed as cell growth at 10 uM incubated for 48 hrs by sulforhodamine B assay; type: functional; details: read-out: Activity
SK-MEL-28 = test: Anticancer activity against human SK-MEL-28 cells assessed as cell growth at 10 uM incubated for 48 hrs by sulforhodamine B assay; type: functional; details: read-out: Activity
HCC 2998 = test: Anticancer activity against human HCC 2998 cells assessed as cell growth at 10 uM incubated for 48 hrs by sulforhodamine B assay; type: functional; details: read-out: Activity
SN12C = test: Anticancer activity against human SN12C cells assessed as cell growth at 10 uM incubated for 48 hrs by sulforhodamine B assay; type: functional; details: read-out: Activity
Malme-3M = test: Anticancer activity against human Malme-3M cells assessed as cell growth at 10 uM incubated for 48 hrs by sulforhodamine B assay; type: functional; details: read-out: Activity
M14 = test: Anticancer activity against human M14 cells assessed as cell growth at 10 uM incubated for 48 hrs by sulforhodamine B assay; type: functional; details: read-out: Activity
SK-MEL-5 = test: Anticancer activity against human SK-MEL-5 cells assessed as cell growth at 10 uM incubated for 48 hrs by sulforhodamine B assay; type: functional; details: read-out: Activity
SNB-19 = test: Anticancer activity against human SNB-19 cells assessed as cell growth at 10 uM incubated for 48 hrs by sulforhodamine B assay; type: functional; details: read-out: Activity
A498 = test: Anticancer activity against human A498 cells assessed as cell growth at 10 uM incubated for 48 hrs by sulforhodamine B assay; type: functional; details: read-out: Activity
MDA-MB-435 = test: Anticancer activity against human MDA-MB-435 cells assessed as cell growth at 10 uM incubated for 48 hrs by sulforhodamine B assay; type: functional; details: read-out: Activity
OVCAR-8 = test: Anticancer activity against human OVCAR-8 cells assessed as cell growth at 10 uM incubated for 48 hrs by sulforhodamine B assay; type: functional; details: read-out: Activity
[5] = GSH reactivity of compound at pH 7.4 phosphate buffer assessed as GSH-adduct formation at 1 mM incubated for 1 hr by spectrophotometric analysis; type: physicochemical; details: pH 7.4, 1 h, 1000 µM
[6] = GSH reactivity of compound at pH 7.4 phosphate buffer assessed as GSH-adduct formation at 1 mM incubated for 1 hr in presence of sodium borohydride by spectrophotometric analysis; type: physicochemical; details: pH 7.4, 1 h, 1000 µM

Activity (Salmon testes DNA): 66.4%
SMILES: O=C1C2=C(C(=O)c3c(O)cccc31)C(c1cccs1)c1sc(=O)[nH]c1S2 (centres undefined)
growth at 10 µM (RXF 393): -97.4%
growth at 10 µM (SF-295): -93.5%
growth at 10 µM (HOP-62): -94.3%
growth at 10 µM (UACC-257): -93.1%
growth at 10 µM (HCT-15): -91.4%
growth at 10 µM (NCI-H322M): -96.8%
IC50 at 72 h [1]: 39.1 µM
IC50 (K562): 21.5 µM
growth at 10 µM (OVCAR-5): -93%
IC50 (KB 3-1): 4.53 µM
growth at 10 µM (SK-MEL-28): -97.2%
growth at 10 µM (HCC 2998): -96.8%
growth at 10 µM (SN12C): -92.8%
growth at 10 µM (Malme-3M): -99.4%
growth at 10 µM (M14): -96.7%
IC50 (MCF7): 24.1 µM
growth at 10 µM (SK-MEL-5): -96.9%
growth at 10 µM (UO-31): -92.9%
growth at 10 µM (SNB-19): -99.5%
growth at 10 µM (A498): -98.7%
growth at 10 µM (BT-549): -99.9%
growth at 10 µM (MDA-MB-435): -90.2%
IC50 [3]: 5.36 µM
IC50 (HCT-116): 5.13 µM
growth at 10 µM (OVCAR-8): -94.6%
growth at 10 µM (SF-539): -99.5%
IC50 at 72 h [4]: 6.81 µM

Activity (Salmon testes DNA): 11.8%
SMILES: O=C1C2=C(C(=O)c3c(O)cccc31)C(CCc1ccccc1)c1sc(=O)[nH]c1S2 (centres undefined)
IC50 (K562): > 50 µM
IC50 (KB 3-1): > 50 µM
IC50 (MCF7): > 50 µM
IC50 [3]: > 50 µM
IC50 (HCT-116): > 50 µM
IC50 at 72 h [4]: > 50 µM

The next lines start with the molecule.

SMILES: O=C1C2=C(C(=O)c3c(O)cccc31)C(c1ccc(Cl)cc1)c1sc(=O)[nH]c1S2 (centres undefined)
Activity (Salmon testes DNA): 29.5%
growth at 10 µM (SR): 38.6%
IC50 at 72 h [1]: 46.6 µM
IC50 (K562): 19.2 µM
IC50 (KB 3-1): 3.33 µM
IC50 at 72 h [2]: > 50 µM
IC50 (MCF7): 7.5 µM
growth at 10 µM (UO-31): 39.8%
growth at 10 µM (BT-549): 39.5%
IC50 [3]: 3.1 µM
IC50 (HCT-116): 4.12 µM
growth at 10 µM (SF-539): 35.1%
growth at 10 µM (CAKI-1): 36.7%
IC50 at 72 h [4]: 5.27 µM

SMILES: CN(C)c1ccc(C2C3=C(Sc4[nH]c(=O)sc42)C(=O)c2cccc(O)c2C3=O)cc1 (centres undefined)
Activity (Salmon testes DNA): 55.4%
IC50 at 72 h [1]: > 50 µM
IC50 (K562): 22.9 µM
IC50 (KB 3-1): 7.21 µM
IC50 at 72 h [2]: > 50 µM
IC50 (MCF7): > 50 µM
IC50 [3]: 8.83 µM
IC50 (HCT-116): 6.15 µM
IC50 at 72 h [4]: 26.9 µM

SMILES: O=C1C2=C(C(=O)c3c(O)cccc31)C(c1cc(Cl)ccc1O)c1sc(=O)[nH]c1S2 (centres undefined)
Activity (Salmon testes DNA): 29.5%
IC50 at 72 h [1]: 37 µM
IC50 (K562): 11.8 µM
IC50 (KB 3-1): 3.64 µM
IC50 at 72 h [2]: > 50 µM
IC50 (MCF7): 9.34 µM
IC50 [3]: 3.86 µM
IC50 (HCT-116): 0.75 µM
IC50 at 72 h [4]: 5.25 µM

SMILES: O=C1C=CC(=O)c2c(O)cccc21 [JUGLONE]
IC50 (KB 3-1): 26.4 µM
Activity [5]: Active
Activity [6]: Active
IC50 (HCT-116): 31.6 µM
IC50 at 72 h [4]: 13.4 µM

SMILES: O=C1C2=C(C(=O)c3c(O)cccc31)C(/C=C/c1ccccc1[N+](=O)[O-])c1sc(=O)[nH]c1S2 (centres undefined)
Activity (Salmon testes DNA): 53.2%
IC50 (K562): 15.7 µM
IC50 (KB 3-1): 6.94 µM
IC50 (MCF7): 0.95 µM
IC50 [3]: 2.16 µM
IC50 (HCT-116): 0.94 µM
IC50 at 72 h [4]: 0.83 µM
